From paper PMC10686834, “Targeting myeloid chemotaxis to reverse prostate cancer therapy resistance” (Nature, 2023)

System: patients with ARSI-resistant mCRPC
Assay: Phase 1 trial of AZD5069 plus enzalutamide: safety and tolerability (DLTs, treatment-emergent adverse events, NCI-CTCAE v.4.0)
Assay type: in vivo
Excerpt: The primary trial objective was to evaluate the safety and tolerability of the combination. Key secondary objectives were to evaluate pharmacokinetic–pharmacodynamic parameters and antitumour activity.
Eligible patients were consenting patients aged ≥18 years, who had mCRPC with histologically confirmed prostate adenocarcinoma histology, documented cancer progression at the time of trial entry by Response Evaluation Criteria in Solid Tumors (v.1.1) and/or Prostate Cancer Working Group 2 criteria, and PSA of ≥10 ng ml^−1 at screening.
The dose-escalation phase used a rule-based 3 + 3 design, with an initial three patients enrolled per dose level. If none of the first three patients experienced a DLT, dose escalation proceeded to the next dose level. […] If fewer than two of six patients at any dose level experienced a DLT, dose escalation continued to the next level. If at least two out of up to six patients experienced a DLT, dose escalation stopped and this dose level was defined as the maximum administered dose. Once this maximum administered dose was defined, the maximum tolerated dose (MTD) was confirmed at the dose level below the maximum administered dose. At least six evaluable patients were required to establish the MTD at a specific dose level. […] Intra-patient dose escalation was not permitted. Start of dosing between the first and second patient enrolled to each dose level was staggered by 1 week. Once the MTD was determined in the phase 1 study, the recommended phase 2 dose was determined on the basis of available data, including but not limited to safety and response.
DLTs were defined as described in the study protocol. […] Prophylaxis with growth factor support or antipyretics were not permitted. Investigators determined whether an adverse event was related to the study drugs. If a patient experienced clinically significant and/or unacceptable toxicity, including a DLT, not attributable to the disease or disease-related processes, dosing was interrupted or the dose was reduced and supportive therapy was administered as required.

## C[C@@H](Oc1cc(NS(=O)(=O)N2CCC2)nc(SCc2cccc(F)c2F)n1)[C@@H](O)CO [AZD5069]
AZD5069 80 mg BD (n=4)
  TEAE Hypophosphataemia, All G: 1 (25) n (%)
  TEAE Hypophosphataemia, G≥3: 0 (0) n (%)
  TEAE Nausea, All G: 0 (0) n (%)
  TEAE Nausea, G≥3: 0 (0) n (%)
  TEAE Neutrophil decreased, All G: 3 (75) n (%)
  TEAE Neutrophil decreased, G≥3: 1 (25) n (%)
  TEAE Oedema genital, All G: 0 (0) n (%)
  TEAE Oedema genital, G≥3: 0 (0) n (%)
  TEAE Platelet decreased, All G: 0 (0) n (%)
  TEAE Platelet decreased, G≥3: 0 (0) n (%)
  TEAE Pruritus, All G: 0 (0) n (%)
  TEAE Pruritus, G≥3: 0 (0) n (%)
  TEAE Skin infection, All G: 1 (25) n (%)
  TEAE Skin infection, G≥3: 0 (0) n (%)
  TEAE Vomiting, All G: 0 (0) n (%)
  TEAE Vomiting, G≥3: 0 (0) n (%)
  TEAE White blood cell decreased, All G: 0 (0) n (%)
  TEAE White blood cell decreased, G≥3: 0 (0) n (%)
AZD5069 120 mg BD (n=3)
  TEAE Anemia, All G: 1 (33) n (%)
  TEAE Anemia, G≥3: 0 (0) n (%)
  TEAE Aphasia, All G: 0 (0) n (%)
  TEAE Aphasia, G≥3: 0 (0) n (%)
  TEAE Arthralgia, All G: 0 (0) n (%)
  TEAE Arthralgia, G≥3: 0 (0) n (%)
  TEAE Aspartate aminotransferase increased, All G: 0 (0) n (%)
  TEAE Aspartate aminotransferase increased, G≥3: 0 (0) n (%)
  TEAE Constipation, All G: 1 (33) n (%)
  TEAE Constipation, G≥3: 0 (0) n (%)
  TEAE Death, All G: 0 (0) n (%)
  TEAE Death, G≥3: 0 (0) n (%)
  TEAE Decreased appetite, All G: 0 (0) n (%)
  TEAE Decreased appetite, G≥3: 0 (0) n (%)
  TEAE Diarrhoea, All G: 0 (0) n (%)
  TEAE Diarrhoea, G≥3: 0 (0) n (%)
  TEAE Dry skin, All G: 0 (0) n (%)
  TEAE Dry skin, G≥3: 0 (0) n (%)
  TEAE Fatigue, All G: 1 (33) n (%)
  TEAE Fatigue, G≥3: 0 (0) n (%)
  TEAE Headache, All G: 0 (0) n (%)
  TEAE Headache, G≥3: 0 (0) n (%)
  TEAE Hypophosphataemia, All G: 0 (0) n (%)
  TEAE Hypophosphataemia, G≥3: 0 (0) n (%)
  TEAE Nausea, All G: 1 (33) n (%)
  TEAE Nausea, G≥3: 0 (0) n (%)
  TEAE Neutrophil decreased, All G: 3 (100) n (%)
  TEAE Neutrophil decreased, G≥3: 2 (67) n (%)
  TEAE Oedema genital, All G: 0 (0) n (%)
  TEAE Oedema genital, G≥3: 0 (0) n (%)
  TEAE Platelet decreased, All G: 1 (33) n (%)
  TEAE Platelet decreased, G≥3: 0 (0) n (%)
  TEAE Pruritus, All G: 0 (0) n (%)
  TEAE Pruritus, G≥3: 0 (0) n (%)
  TEAE Skin infection, All G: 0 (0) n (%)
  TEAE Skin infection, G≥3: 0 (0) n (%)
  TEAE Vomiting, All G: 0 (0) n (%)
  TEAE Vomiting, G≥3: 0 (0) n (%)
  TEAE White blood cell decreased, All G: 0 (0) n (%)
  TEAE White blood cell decreased, G≥3: 0 (0) n (%)
AZD5069 160 mg BD (n=6)
  TEAE Anemia, All G: 2 (33) n (%)
  TEAE Anemia, G≥3: 1 (17) n (%)
  TEAE Aphasia, All G: 0 (0) n (%)
  TEAE Aphasia, G≥3: 0 (0) n (%)
  TEAE Arthralgia, All G: 0 (0) n (%)
